Tests used:
[1] = target: T1, α4β7 (adhesion of RPMI cells to CS-1) (Homo sapiens, UniProt P13612+P26010); test: RPMI-CS-1 cell adhesion assay; assay type: cell-based; settings: adhesion of RPMI B-cell line (expresses α4β7) to CS-1 peptide coated microwells; read-out: RPMI-CS-1 IC50 value range
T1 construct: endogenous in cells
T1 sequence (P13612 34-1032): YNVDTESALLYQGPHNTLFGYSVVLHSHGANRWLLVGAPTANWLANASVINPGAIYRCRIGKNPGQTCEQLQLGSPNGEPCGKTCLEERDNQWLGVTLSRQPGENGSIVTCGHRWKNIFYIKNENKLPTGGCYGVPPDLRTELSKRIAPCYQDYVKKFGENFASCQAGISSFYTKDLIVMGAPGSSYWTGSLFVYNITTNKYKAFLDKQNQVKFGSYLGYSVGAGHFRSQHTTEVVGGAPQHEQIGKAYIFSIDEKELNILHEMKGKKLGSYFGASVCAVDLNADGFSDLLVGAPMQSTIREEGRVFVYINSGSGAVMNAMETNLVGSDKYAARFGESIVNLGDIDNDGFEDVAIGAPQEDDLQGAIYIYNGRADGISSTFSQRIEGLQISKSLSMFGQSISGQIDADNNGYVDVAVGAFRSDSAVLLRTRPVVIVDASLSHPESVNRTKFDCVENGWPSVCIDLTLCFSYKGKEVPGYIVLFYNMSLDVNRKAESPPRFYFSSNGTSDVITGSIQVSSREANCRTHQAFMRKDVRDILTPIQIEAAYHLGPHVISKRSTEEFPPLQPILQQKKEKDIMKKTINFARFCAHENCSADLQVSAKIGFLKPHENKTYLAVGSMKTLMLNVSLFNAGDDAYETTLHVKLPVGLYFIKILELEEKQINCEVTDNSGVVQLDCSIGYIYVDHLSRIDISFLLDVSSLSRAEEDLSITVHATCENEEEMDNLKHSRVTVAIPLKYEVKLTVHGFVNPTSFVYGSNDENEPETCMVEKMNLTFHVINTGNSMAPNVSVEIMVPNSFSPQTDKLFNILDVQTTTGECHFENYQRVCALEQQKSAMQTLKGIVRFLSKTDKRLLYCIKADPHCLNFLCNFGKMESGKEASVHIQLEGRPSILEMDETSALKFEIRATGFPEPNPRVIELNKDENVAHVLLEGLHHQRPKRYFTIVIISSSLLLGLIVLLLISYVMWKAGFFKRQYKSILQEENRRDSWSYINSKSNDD
T1 sequence (P26010 20-798): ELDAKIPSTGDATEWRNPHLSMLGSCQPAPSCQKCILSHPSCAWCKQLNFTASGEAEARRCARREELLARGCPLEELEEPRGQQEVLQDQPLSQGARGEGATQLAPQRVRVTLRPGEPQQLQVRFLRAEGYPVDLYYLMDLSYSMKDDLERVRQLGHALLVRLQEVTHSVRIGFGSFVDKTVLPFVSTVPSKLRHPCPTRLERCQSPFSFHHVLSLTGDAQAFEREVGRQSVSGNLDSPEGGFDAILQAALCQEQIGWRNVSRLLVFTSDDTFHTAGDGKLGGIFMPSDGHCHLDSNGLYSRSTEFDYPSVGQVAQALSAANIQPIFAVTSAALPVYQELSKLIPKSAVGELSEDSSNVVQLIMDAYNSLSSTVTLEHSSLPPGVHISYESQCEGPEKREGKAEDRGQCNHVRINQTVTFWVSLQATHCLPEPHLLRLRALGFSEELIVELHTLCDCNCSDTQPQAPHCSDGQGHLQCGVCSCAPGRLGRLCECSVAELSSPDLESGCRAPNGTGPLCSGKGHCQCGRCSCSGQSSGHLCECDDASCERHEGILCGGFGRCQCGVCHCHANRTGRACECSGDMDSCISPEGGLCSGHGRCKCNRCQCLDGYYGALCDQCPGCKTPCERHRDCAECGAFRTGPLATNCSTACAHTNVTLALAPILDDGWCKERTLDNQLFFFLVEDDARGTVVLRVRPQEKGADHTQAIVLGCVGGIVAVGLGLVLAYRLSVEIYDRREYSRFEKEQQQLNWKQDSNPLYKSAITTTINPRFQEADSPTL

Structure (SMILES) | melting point | IC50 [1] [µM]
COc1ccc(CN2CCOCC2)c(OC)c1-c1ccc(C[C@H](NC(=O)c2c(Cl)cccc2Cl)C(=O)O)cc1 [Example 319, N-(2,6-Dichlorobenzoyl)-4-[2,6-dimethoxy-3-(morpholinomethyl)phenyl]-L-phenylalanine] | 241 to 242 °C | < 0.3
COc1c(C)c(OC)c(-c2ccc(C[C@H](NC(=O)c3c(Cl)cccc3Cl)C(=O)O)cc2)c(OC)c1C [Example 147] | 114 to 115 °C | < 0.3
COc1cccc(OC)c1-c1ccc(CC[C@H](NC(=O)c2c(Cl)cccc2Cl)C(=O)O)cc1 [Example 295, N-(2,6-Dichlorobenzoyl)-4-(2,6-dimethoxyphenyl)-L-homophenylalanine] | 105 to 107 °C | 1 to 5
COC(=O)Nc1cc(Cl)c(C(=O)N[C@@H](Cc2ccc(-c3c(OC)cccc3OC)cc2)C(=O)O)c(Cl)c1 [Example 201] | 147 to 149 °C | < 0.3
CN(C)CCOc1cccc(O)c1-c1ccc(C[C@H](NC(=O)c2c(Cl)cccc2Cl)C(=O)O)cc1 [Example 232] | 168 to 169 °C | < 0.3
COc1cccc(OC)c1-c1ccc(C[C@H](NC(=O)c2c(Cl)cc(-c3cccn3C)cc2Cl)C(=O)O)cc1 [Example 302, N-[2,6-Dichloro-4-(1-methyl-2-pyrrolyl)benzoyl]-4-(2,6-dimethoxyphenyl)-L-phenylalanine] | 199 °C | < 0.3
CS(=O)(=O)Nc1ccc(C(=O)N[C@@H](Cc2ccc(-c3ccccc3C(F)(F)F)cc2)C(=O)O)c(Cl)c1 [Example 335, N-[2-Chloro-4-(methansulfonylamino)benzoyl]-4-[2-(trifluoromethyl)phenyl]-L-phenylalanine] | 114 °C | 0.3 to 1
COc1cccc(OC)c1-c1ccc(C[C@H](NC(=S)c2c(Cl)cccc2Cl)C(=O)O)cc1 [Example 266, N-(2,6-Dichlorothiobenzoyl)-4-(2,6-dimethoxyphenyl)-L-phenylalanine] | 180.4 °C | < 0.3
COc1cccc(OC)c1-c1ccc(C[C@H](NC(=O)c2c(Cl)cc(Br)cc2Cl)C(=O)O)cc1 [Example 207] | 184 to 185 °C | < 0.3
CNC(=O)Nc1cc(OC)c(-c2ccc(C[C@H](NC(=O)c3c(Cl)cccc3Cl)C(=O)O)cc2)c(OC)c1 [Example 160, N-(2,6-Dichlorobenzoyl)-4-[4-(3-methylureido)-2,6-dimethoxyphenyl]-L-phenylalanine] | 206 to 207 °C | < 0.3
COc1cccc(OC)c1-c1ccc(C[C@H](NC(=O)c2c(Cl)ccc(-c3c(C)noc3C)c2Cl)C(=O)O)cc1 [Example 305, N-[3-(3,5-Dimethyl-4-isoxazolyl)-2,6-dichlorobenzoyl]-4-(2,6-dimethoxyphenyl)-L-phenylalanine] | 144.8 °C | 0.3 to 1
CCc1cc(C[C@H](NC(=O)c2c(Cl)cccc2Cl)C(=O)O)ccc1-c1ccccc1OC [Example 296, N-(2,6-Dichlorobenzoyl)-3-ethyl-4-(2-methoxyphenyl)-L-phenylalanine] | 105 to 107 °C | < 0.3
COc1cccc(OC)c1-c1ccc(C[C@H](NC(=O)c2c(Cl)cccc2Cl)C(=O)O)s1 [Example 294, N-(2,6-Dichlorobenzoyl)-3-[5-(2,6-dimethoxyphenyl)-2-thienyl]-L-alanine] | 134 °C (dec.) | 1 to 5
COc1cccc(OC)c1-c1ccc(C[C@H](NC(=O)c2c(Cl)cc(-c3cnccn3)cc2Cl)C(=O)O)cc1 [Example 308, N-[4-(2-Pyrazinyl)-2,6-dichlorobenzoyl]-4-(2,6-dimethoxyphenyl)-L-phenylalanine] | 145.7 °C | < 0.3
COc1cccc(OC)c1-c1ccc(C[C@H](NC(=O)c2c(Cl)cc(-c3ccccc3)cc2Cl)C(=O)O)cc1 [Example 301, N-(2,6-Dichloro-4-phenylbenzoyl)-4-(2,6-dimethoxyphenyl)-L-phenylalanine] | 215 °C | < 0.3
COc1ccc(F)c(OC)c1-c1ccc(C[C@H](NC(=O)c2c(Cl)cccc2Cl)C(=O)O)cc1 [Example 153A, N-(2,6-Dichlorobenzoyl)-4-(2,6-dimethoxy-3-fluorophenyl)-L-phenylalanine] | 228 to 229 °C | < 0.3
COc1cc(CCN2CCN(C)CC2)cc(OC)c1-c1ccc(C[C@H](NC(=O)c2c(Cl)cccc2Cl)C(=O)O)cc1 [Example 264, N-(2,6-Dichlorobenzoyl)-4-[2,6-dimethoxy-4-[2-(4-methyl-1-piperazinyl)ethyl]phenyl]-L-phenylalanine] | 178.9 °C | < 0.3
CCCc1cc(OC)c(-c2ccc(C[C@H](NC(=O)c3c(Cl)cccc3Cl)C(=O)O)cc2)c(OC)c1 [Example 149] | 238 to 239 °C (dec.) | < 0.3
COc1cc(NC(C)=O)cc(OC)c1-c1ccc(C[C@H](NC(=O)c2c(Cl)cccc2Cl)C(=O)O)cc1 [Example 159, N-(2,6-Dichlorobenzoyl)-4-(4-acetylamino-2,6-dimethoxyphenyl)-L-phenylalanine] | 243 to 244 °C | < 0.3
CCNC(=S)Nc1ccc(C(=O)N[C@@H](Cc2ccc(-c3ccccc3OC)cc2)C(=O)O)c(Cl)c1 [Example 196] | 155 to 156 °C | < 0.3
CC(C)(C)OC(=O)n1cccc1-c1ccc(C[C@H](NC(=O)c2c(Cl)cccc2Cl)C(=O)O)cc1 [Example 329, N-(2,6-Dichlorobenzoyl)-4-(1-tert-butoxycarbonyl-2-pyrrolyl)-L-phenylalanine] | 98 to 99 °C | 1 to 5
COc1cc(C(=O)O)cc(OC)c1-c1ccc(C[C@H](NC(=O)c2c(Cl)cccc2Cl)C(=O)O)cc1 [Example 172, N-(2,6-Dichlorobenzoyl)-4-(4-carboxy-2,6-dimethoxyphenyl)-L-phenylalanine] | 277 to 278 °C | < 0.3
COc1cccc(OC)c1-c1ccc(C[C@H](NC(=O)c2c(Cl)cc(-c3ccc[nH]3)cc2Cl)C(=O)O)cc1 [Example 303, N-[4-(2-Pyrrolyl)-2,6-dichlorobenzoyl]-4-(2,6-dimethoxyphenyl)-L-phenylalanine] | 250 °C | < 0.3
COc1cc(C)cc(OC)c1-c1ccc(C[C@H](NC(=O)c2c(Cl)cccc2Cl)C(=O)O)cc1 [Example 148] | 233 to 234 °C | < 0.3
COc1ccc(C(N)=O)c(OC)c1-c1ccc(C[C@H](NC(=O)c2c(Cl)cc(NC(N)=O)cc2Cl)C(=O)O)cc1 [Example 205, N-(4-Ureido-2,6-dichlorobenzoyl)-4-(3-carbamoyl-2,6-dimethoxyphenyl)-L-phenylalanine] | 217 to 219 °C | < 0.3
COc1ccccc1-c1cccc(CC(NC(=O)c2c(Cl)cccc2Cl)C(=O)O)c1 (racemic) [Example 6, N-(2,6-Dichlorobenzoyl)-3-[2-methoxyphenyl)-DL-phenylalanine] | 104 °C | > 5
N#CCOc1cccc(OCC#N)c1-c1ccc(C[C@H](NC(=O)c2c(Cl)cccc2Cl)C(=O)O)cc1 [Example 231] | 175 to 176 °C | < 0.3

Reference: patent US6855843B2, “Inhibitors of α4 mediated cell adhesion” (Tanabe Seiyaku Co., Ltd., priority 1998, dated 2005)
